Measured values as given in ChEMBL document CHEMBL1151039, “Muscarinic antagonist activity of 3-(5-alkoxy-oxazol-2-yl)-1,2,5,6-tetrahydropyridines” (Bioorg Med Chem Lett, 1994).

What was measured:
[1] = target: Muscarinic acetylcholine receptor; test: Inhibition of [3H]pirenzepine binding to muscarinic receptor in rat cortical homogenates
Rattus norvegicus = organism: Rattus norvegicus; test: In vitro inhibition of acetylcholine induced phosphatidyl inositol hydrolysis in a rat cerebral cortex slice preparation; type: functional
Mus musculus = test: In vivo antagonist activity measured as inhibition of oxotremorine induced tremors in mice at 1 mg/kg of ip administration; type: functional; settings: route intraperitoneal

Ki [1] | SMILES | IC50 (Rattus norvegicus) | AD50 (Mus musculus)
0.0008 µM | CCCOc1oc(C2=CCCN(C)C2)nc1C(C)CC (stereo not given) | – | –
0.03 µM | CCc1nc(C2=CCCN(C)C2)oc1OC | – | –
0.016 µM | COc1oc(C2=CCCN(C)C2)nc1Cc1ccccc1 | – | –
> 1 µM | COc1cnc(C2=CCCN(C)C2)o1 | – | –
0.01 µM | COc1oc(C2=CCCN(C)C2)nc1C(C)C | – | –
0.0008 µM | CCOc1oc(C2=CCCN(C)C2)nc1C(C)CC (stereo not given) | – | –
0.0015 µM | CCCCOc1oc(C2=CCCN(C)C2)nc1C(C)CC (stereo not given) | – | –
0.025 µM | COc1oc(C2=CCCN(C)C2)nc1CC(C)C | – | –
0.022 µM | CCCCCCOc1oc(C2=CCCN(C)C2)nc1C(C)CC (stereo not given) | – | –
0.033 µM | CCOc1oc(C2=CCCN(C)C2)nc1C | – | –
0.011 µM | CCCCc1nc(C2=CCCN(C)C2)oc1OC | – | –
0.09 µM | COc1oc(C2=CCCN(C)C2)nc1C | – | –
0.002 µM | CCC(C)c1nc(C2=CCCN(C)C2)oc1OC (stereo not given) | – | –
– | CN1[C@@H]2C[C@@H](OC(=O)[C@H](CO)c3ccccc3)C[C@H]1[C@@H]1O[C@@H]12 [SCOPOLAMINE] | 0.0089 µM | 0.1 mg/kg
